# Target: T1, mouse TRPM3α2 (mTRPM3) ion channel (Mus musculus, UniProt J9SQF3)
# T1 construct: expressed in transfected cells; host or cells: flip-in HEK293 (Flp-In HEK293) overexpressing mTRPM3alpha2
# Test: TRPM3 ion channel driven Ca2+ uptake, Fluo-4 AM assay, stimulated with pregnenolone sulfate (50 μM)
# Type: cell-based
# Conditions: TRPM3 overexpressing flip-in HEK293 cells, PS 50 μM, 2.4 mM Ca2+
# Method: In order to monitor the inhibition of the mouse TRPM3α2 (mTRPM3) ion channel by the compounds of the invention, a cellular system making use of an mTRPM3alpha2 or hTRPM3 overexpressing cell line (flip-in HEK293) was used. The TRPM3 channel was stimulated/opened with Pregnenolone sulfate (PS) (50 μM) which results in Ca^2+ influx.
# For mTRPM3, the intracellular Ca^2+ was measured with a Calcium responsive dye, Fluor-4 AM ester (Invitrogen). Cells were cultured until a confluence of 80-90%, washed with Versene (Invitrogen) and detached from the surface by a short incubation with 0.05% Trypsin (Invitrogen). The […] was stopped by the addition of complete cell culture medium (DMEM, glutamax, 10% FCS, NEAA, Pen-Strep). Cells were collected and resuspended in Krebs buffer without Calcium at RT.
# Prior the cell seeding (±2000 cells/well into a black, 384 well plate (Greiner)) the diluted compound was added in the assay plate, together with the PS dissolved in Krebs buffer containing Calcium. […] Directly after cell addition the plates were read on an Envision fluorescence reader (Perkin Elmer) by an Excitation of 485 nm and emission at 535 nm.
# Channel inhibition was calculated compared to a non-PS stimulated control versus a condition stimulated with PS (50 μM) with vehicle. The ability of the compounds of the invention to inhibit this activity was determined as: Percentage inhibition=[1−((RFU determined for sample with test compound present−RFU determined for sample with positive control inhibitor) divided by (RFU determined in the presence of vehicle−RFU determined for sample with positive control inhibitor))]*100.
# The activities of the Example compounds cpd 001-091 tested are depicted in the table below. All tested compounds show an activity in the Fluo-4 AM assay. The activity ranges A, B and C refer to IC50 values in the Fluo-4 AM assay as follows: “A”: IC50<1 μM; “B”: 1 μM≤IC50≤20 μM and “C”: IC50>20 μM.
# T1 sequence (J9SQF3 1-1709 isoform J9SQF3-12): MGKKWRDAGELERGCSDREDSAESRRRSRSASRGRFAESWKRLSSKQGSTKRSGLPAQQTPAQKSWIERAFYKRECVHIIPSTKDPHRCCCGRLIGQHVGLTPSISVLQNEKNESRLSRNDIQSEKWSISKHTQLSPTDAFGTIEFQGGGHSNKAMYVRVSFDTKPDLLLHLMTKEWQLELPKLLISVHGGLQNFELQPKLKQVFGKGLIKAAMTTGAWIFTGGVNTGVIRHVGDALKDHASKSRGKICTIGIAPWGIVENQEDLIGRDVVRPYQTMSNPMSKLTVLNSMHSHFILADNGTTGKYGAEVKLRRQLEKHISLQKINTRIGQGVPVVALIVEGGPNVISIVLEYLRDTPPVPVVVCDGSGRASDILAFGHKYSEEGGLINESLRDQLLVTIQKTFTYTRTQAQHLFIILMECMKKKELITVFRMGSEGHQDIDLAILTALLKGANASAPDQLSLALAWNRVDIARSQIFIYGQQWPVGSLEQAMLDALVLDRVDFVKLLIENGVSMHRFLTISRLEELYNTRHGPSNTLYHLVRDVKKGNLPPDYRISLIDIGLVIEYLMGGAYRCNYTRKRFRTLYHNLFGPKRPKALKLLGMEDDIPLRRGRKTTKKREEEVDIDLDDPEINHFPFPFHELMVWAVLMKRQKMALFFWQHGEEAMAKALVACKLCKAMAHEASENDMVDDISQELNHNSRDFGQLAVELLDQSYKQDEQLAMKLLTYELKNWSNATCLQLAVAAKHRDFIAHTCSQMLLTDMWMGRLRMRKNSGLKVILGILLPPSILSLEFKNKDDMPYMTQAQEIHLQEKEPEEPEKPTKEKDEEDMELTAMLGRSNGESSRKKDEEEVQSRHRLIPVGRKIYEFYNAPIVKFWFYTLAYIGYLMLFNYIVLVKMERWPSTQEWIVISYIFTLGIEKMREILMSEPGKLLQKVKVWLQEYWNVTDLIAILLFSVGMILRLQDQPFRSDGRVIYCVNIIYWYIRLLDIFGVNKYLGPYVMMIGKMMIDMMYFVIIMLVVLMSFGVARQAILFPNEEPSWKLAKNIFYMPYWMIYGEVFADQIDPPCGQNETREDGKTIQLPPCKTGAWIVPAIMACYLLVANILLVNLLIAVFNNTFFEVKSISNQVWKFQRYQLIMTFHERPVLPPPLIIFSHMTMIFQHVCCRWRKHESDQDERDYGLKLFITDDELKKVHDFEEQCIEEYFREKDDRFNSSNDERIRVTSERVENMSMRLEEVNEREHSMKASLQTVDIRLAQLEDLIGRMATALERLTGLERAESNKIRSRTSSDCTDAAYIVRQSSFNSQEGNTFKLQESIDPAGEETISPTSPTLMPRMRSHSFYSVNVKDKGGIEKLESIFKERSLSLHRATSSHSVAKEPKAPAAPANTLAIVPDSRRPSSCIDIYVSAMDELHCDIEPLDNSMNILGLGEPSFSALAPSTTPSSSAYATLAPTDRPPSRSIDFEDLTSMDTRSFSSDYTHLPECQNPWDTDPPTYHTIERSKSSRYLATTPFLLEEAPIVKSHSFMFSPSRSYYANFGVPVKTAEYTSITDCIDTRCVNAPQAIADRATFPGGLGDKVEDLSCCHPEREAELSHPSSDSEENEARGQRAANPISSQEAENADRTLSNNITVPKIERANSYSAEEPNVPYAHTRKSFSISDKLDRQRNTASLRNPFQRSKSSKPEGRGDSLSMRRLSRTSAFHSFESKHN
row,SMILES,IC50
1,"Cc1nn2ccc(OCc3ccccn3)cc2c1C(=O)NCC(F)(F)F [Cpd 042, 2-methyl-5-[(pyridin-2-yl)methoxy]-N-(2,2,2-trifluoroethyl)pyrazolo[1,5-a]pyridine-3-carboxamide]",> 20 µM
2,"Cc1nn2ccc(OCc3ccccn3)cc2c1C(=O)NCCO [Cpd 043, N-(2-hydroxyethyl)-2-methyl-5-[(pyridin-2-yl)methoxy]pyrazolo[1,5-a]pyridine-3-carboxamide]",> 20 µM
3,"Cc1nn2ccc(OCc3ccccn3)cc2c1C(=O)NCC(F)(F)c1ccccc1 [Cpd 046, N-(2,2-difluoro-2-phenylethyl)-2-methyl-5-[(pyridin-2-yl)methoxy]pyrazolo[1,5-a]pyridine-3-carboxamide]",> 20 µM
4,"Cc1nn2ccc(OCc3ccccn3)cc2c1C(=O)NCc1cccc(OC(F)F)c1 [Cpd 048, N-{[3-(difluoromethoxy)phenyl]methyl}-2-methyl-5-[(pyridin-2-yl)methoxy]pyrazolo[1,5-a]pyridine-3-carboxamide]",> 20 µM
5,"Cc1nn2ccc(OCc3ccccn3)cc2c1C(=O)Nc1cc(C(F)(F)F)cnc1O [Cpd 056, N-[2-hydroxy-5-(trifluoromethyl)pyridin-3-yl]-2-methyl-5-[(pyridin-2-yl)methoxy]pyrazolo[1,5-a]pyridine-3-carboxamide]",> 20 µM
6,"Cc1nn2ccc(OCc3ccccn3)cc2c1C(=O)NC1(CO)COC(C)(C)OC1 [Cpd 057, N-[5-(hydroxymethyl)-2,2-dimethyl-1,3-dioxan-5-yl]-2-methyl-5-[(pyridin-2-yl)methoxy]pyrazolo[1,5-a]pyridine-3-carboxamide]",> 20 µM
7,"Cc1nn2ccc(OCc3ccccn3)cc2c1C(=O)NC1(CO)CC1(F)F (centres unmarked) [Cpd 071, N-[2,2-difluoro-1-(hydroxymethyl)cyclopropyl]-2-methyl-5-[(pyridin-2-yl)methoxy]pyrazolo[1,5-a]pyridine-3-carboxamide]",> 20 µM
8,"Cc1nn2ccc(OCc3ccccn3)cc2c1C(=O)N[C@H](CO)CC(N)=O [Cpd 076 - En1, (S)-4-hydroxy-3-({2-methyl-5-[(pyridin-2-yl)methoxy]pyrazolo[1,5-a]pyridin-3-yl}formamido)butanamide]",> 20 µM
9,Cc1nn2ccc(OCc3ccccn3)cc2c1C(=O)NC(CO)CC(N)=O (centres unmarked) [Cpd 076 - En2],> 20 µM
10,Cc1nn2ccc(OCc3ccccn3)cc2c1C(=O)NC(CO)C1CCOCC1 (centres unmarked) [Cpd 077 - En2],> 20 µM
11,Cc1nn2ccc(OCc3ccccn3)cc2c1C(=O)NC(CO)Cc1ncccn1 (centres unmarked) [Cpd 079 - En 1],> 20 µM

# The remaining lines, values ahead:
row,IC50,SMILES
1,1 to 20 µM,"Cc1ncsc1COc1ccn2nc(C)c(C(=O)N[C@@H](CO)C(N)=O)c2c1 [Cpd 010, (2S)-3-hydroxy-2-({2-methyl-5-[(4-methyl-1,3-thiazol-5-yl)methoxy]pyrazolo[1,5-a]pyridin-3-yl}formamido)propanamide]"
2,< 1 µM,"Cc1nn2ccc(OCc3ccccc3Cl)cc2c1C(=O)N[C@@H](CO)C(N)=O [Cpd 012, (2S)-2-({5-[(2-chlorophenyl)methoxy]-2-methylpyrazolo[1,5-a]pyridin-3-yl}formamido)-3-hydroxypropanamide]"
3,1 to 20 µM,"Cc1nn2ccc(OCc3ccccc3Cl)cc2c1C(=O)NC(C)(C)C(N)=O [Cpd 013, 2-({5-[(2-chlorophenyl)methoxy]-2-methylpyrazolo[1,5-a]pyridin-3-yl}formamido)-2-methylpropanamide]"
4,< 1 µM,"Cc1nn2ccc(OCc3ccccc3Cl)cc2c1C(=O)NC(C)(CO)CO [Cpd 014, 5-[(2-chlorophenyl)methoxy]-N-(1,3-dihydroxy-2-methylpropan-2-yl)-2-methylpyrazolo[1,5-a]pyridine-3-carboxamide]"
5,> 20 µM,"Cc1nn2ccc(OCc3ccccc3)cc2c1C(=O)O [Cpd 033, 5-(benzyloxy)-2-methylpyrazolo[1,5-a]pyridine-3-carboxylic acid]"
6,> 20 µM,"Cc1nn2ccc(OCC3CC3)cc2c1C(=O)O [Cpd 034, 5-(cyclopropylmethoxy)-2-methylpyrazolo[1,5-a]pyridine-3-carboxylic acid]"
7,> 20 µM,"Cc1nn2ccc(OCc3ccccc3F)cc2c1C(=O)O [Cpd 035, 5-[(2-fluorophenyl)methoxy]-2-methylpyrazolo[1,5-a]pyridine-3-carboxylic acid]"
8,> 20 µM,"Cc1nn2ccc(OCc3ccccc3Cl)cc2c1C(=O)O [Cpd 036, 5-[(2-chlorophenyl)methoxy]-2-methylpyrazolo[1,5-a]pyridine-3-carboxylic acid]"
9,1 to 20 µM,"Cc1nn2ccc(OCc3ccccn3)cc2c1C(=O)NCc1ncc[nH]1 [Cpd 044, N-[(1H-imidazol-2-yl)methyl]-2-methyl-5-[(pyridin-2-yl)methoxy]pyrazolo[1,5-a]pyridine-3-carboxamide]"
10,1 to 20 µM,"Cc1nn2ccc(OCc3ccccn3)cc2c1C(=O)NCC(C)(C)CN(C)C [Cpd 045, N-[3-(dimethylamino)-2,2-dimethylpropyl]-2-methyl-5-[(pyridin-2-yl)methoxy]pyrazolo[1,5-a]pyridine-3-carboxamide]"
11,1 to 20 µM,"Cc1nn2ccc(OCc3ccccn3)cc2c1C(=O)NCc1c(F)cccc1C(F)(F)F [Cpd 047, N-{[2-fluoro-6-(trifluoromethyl)phenyl]methyl}-2-methyl-5-[(pyridin-2-yl)methoxy]pyrazolo[1,5-a]pyridine-3-carboxamide]"
12,1 to 20 µM,"Cc1nn2ccc(OCc3ccccn3)cc2c1C(=O)NC1(CO)CC(F)(F)C1 [Cpd 055, N-[3,3-difluoro-1-(hydroxymethyl)cyclobutyl]-2-methyl-5-[(pyridin-2-yl)methoxy]pyrazolo[1,5-a]pyridine-3-carboxamide]"

# — patent US20250376468A1, “PYRAZOLO[1,5-a]PYRIDINE DERIVATIVES FOR TREATING TRPM3-MEDIATED DISORDERS” (Katholieke Universiteit Leuven, priority 2022, published 2025)
